Measurements taken from US20260274895A1, “DE NOVO DESIGNED MEMBRANE-TRAVERSING AND ORALLY BIOAVAILABLE MACROCYCLES” (UNIVERSITY OF WASHINGTON, priority 2022, published 2026).
Read-outs that look alike come from different tables or passages of the source. Where a SMILES comes first, the peptide text is derived from it. [ ]: non-standard residue; d: D form. dNMeI = CC[C@@H](C)[C@@H](NC)C(=O)O; NMeL = CN[C@@H](CC(C)C)C(=O)O

Assays:
[1] = mouse, in vivo
in vivo = details: male, Swiss Albino, mouse; for level at 0.08 h / level at 0.25 h / level at 0.5 h / level at 1 h / level at 3 h / level at 5 h / level at 8 h / level at 24 h: Plasma concentration
[2] = PAMPA
[3] = mouse, in vivo, iv

`CC[C@@H](C)[C@H]1NC(=O)[C@H]([C@@H](C)CC)NC(=O)[C@H](CC(C)C)N(C)C(=O)[C@H]2CCCN2C(=O)[C@@H]([C@H](C)CC)NC(=O)[C@@H]([C@H](C)CC)N(C)C(=O)[C@H](CC(C)C)NC(=O)[C@H]2CCCN2C(=O)[C@@H]2CCCN2C(=O)[C@H](C(C)C)NC(=O)[C@H]2CCCN2C1=O` [Design D11.3, VPpL*iip*LIip] (cyclo(I[dI][dP]VP[dP]L[dNMeI][dI][dP][NMeL])) showed an F ([1]; 10 mg/kg) of 40.06%, an AUC0-inf ([1]; iv, 1 mg/kg) of 7187.15 ng·h/mL and an AUC0-last ([1]; iv, 1 mg/kg) of 6965.11 ng·h/mL. The AUCExtra ([1]; iv, 1 mg/kg) was 3.09%, the C0 ([1]; iv, 1 mg/kg) was 3957.56 ng/mL and the Cl ([1]; iv, 1 mg/kg) was 2.32 mL/min/kg. It also gave an MRT0-last ([1]; iv, 1 mg/kg) of 4.64 h, a T½ ([1]; iv, 1 mg/kg) of 5.58 h and a Vd ([1]; iv, 1 mg/kg) of 1.12 L/kg. For the same compound, the AUC0-inf ([1]; po, 10 mg/kg) was 28793.58 ng·h/mL, the AUC0-last ([1]; po, 10 mg/kg) was 28242.38 ng·h/mL and the AUCExtra ([1]; po, 10 mg/kg) was 1.91%. The MRT0-last ([1]; po, 10 mg/kg) was 6.32 h, the AUC0-inf ([1]; sc, 5 mg/kg) was 3047.15 ng·h/mL and the AUC0-last ([1]; sc, 5 mg/kg) was 2122.81 ng·h/mL. It also gave an AUCExtra ([1]; sc, 5 mg/kg) of 30.33%, an MRT0-last ([1]; sc, 5 mg/kg) of 10.71 h and a level at 0.08 h (in vivo; iv, 1 mg/kg) of 3750 ng/mL. The level at 0.25 h (in vivo; iv, 1 mg/kg) was 3350 ng/mL, the level at 0.5 h (in vivo; iv, 1 mg/kg) was 2010 ng/mL and the level at 1 h (in vivo; iv, 1 mg/kg) was 1140 ng/mL. It also gave a level at 3 h (in vivo; iv, 1 mg/kg) of 512 ng/mL, a level at 5 h (in vivo; iv, 1 mg/kg) of 267 ng/mL and a level at 8 h (in vivo; iv, 1 mg/kg) of 235 ng/mL. It also gave a level at 24 h (in vivo; iv, 1 mg/kg) of 27.6 ng/mL, a level at 0.08 h (in vivo; po, 10 mg/kg) of 69.6 ng/mL and a level at 0.25 h (in vivo; po, 10 mg/kg) of 750 ng/mL. For the same compound, the level at 0.5 h (in vivo; po, 10 mg/kg) was 2520 ng/mL, the level at 1 h (in vivo; po, 10 mg/kg) was 2960 ng/mL and the level at 3 h (in vivo; po, 10 mg/kg) was 3500 ng/mL. For the same compound, the level at 5 h (in vivo; po, 10 mg/kg) was 2540 ng/mL, the level at 8 h (in vivo; po, 10 mg/kg) was 1480 ng/mL and the level at 24 h (in vivo; po, 10 mg/kg) was 95 ng/mL. For the same compound, the bioavailability (in vivo; sc, 5 mg/kg) was 8.48%, the level at 0.08 h (in vivo; sc, 5 mg/kg) was 12.4 ng/mL and the level at 1 h (in vivo; sc, 5 mg/kg) was 44.1 ng/mL. The level at 3 h (in vivo; sc, 5 mg/kg) was 128 ng/mL, the level at 5 h (in vivo; sc, 5 mg/kg) was 148 ng/mL and the level at 8 h (in vivo; sc, 5 mg/kg) was 114 ng/mL. For the same compound, the level at 24 h (in vivo; sc, 5 mg/kg) was 57.6 ng/mL, the “PAMPA_Papp_Avg (apparent permeability)” value [2] was 1.48 ×10⁻⁶ cm/s and the half-life [3] was 5.58 h.
